Laboratory results published in US20250122219A1 (priority 2023, published 2025).
Where two headings read alike, the source gives them in different places.

Tests used:
HIV-1 (IIIB) = assay: Antiviral assay in MT-4 cells; type: cell-based
In short: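 HIV-1 IIIB-infected MT-4 cells (fresh 1:250 virus stock dilution; mock-infected controls) incubated 5 days at 37 °C with serially diluted compounds in RPMI/10% FBS; 5 μM AZT as positive control. Cell viability read by CellTiter-Glo luminescence as measure of protection from viral replication.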

[1] = Cytotoxicity assay in MT-4 cells; type: cell-based; conditions: human; uninfected MT-4 cells, 5 days incubation, Cell Titer Glo; read-out: MT4 CC50
In short: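 Uninfected MT-4 cells exposed to serially diluted compounds in RPMI with 10% FBS for 5 days at 37 °C. Viability by Cell Titer Glo chemiluminescence. Puromycin […] as baseline cytotoxicity control.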

[2] = Human immunodeficiency virus 1, MT4, 120 h, HIV-1 IIIB in MT-4 cells, 5 days incubation, Cell Titer Glo, read-out: MT4 EC50

EC50 (HIV-1 (IIIB); [2])	Structure (SMILES)	CC50 at 5 days [1]	EC50 (HIV-1 (IIIB); Human immunodeficiency virus 1, IIIB, MT4, 120 h, read-out: MT4 EC50 (nM))
1.72 nM	CC1=NO[C@@]2(CC[C@H](C)N3C[C@H]2n2cc(C(=O)NCc4ccc(F)cc4F)c(=O)c(OC(=O)OCCCCC(C)C)c2C3=O)C1 [Example 154, (3′S,5S,7′R)-10′-((2,4-difluorobenzyl)carbamoyl)-3,3′-dimethyl-1′,11′-dioxo-1′,4′,5′,11′-tetrahydro-3′H,4H,7′H-spiro[isoxazole-5,6′-[2,7]methanopyrido[1,2-a][1,4]diazonin]-12′-yl (5-methylhexyl) carbonate]	17200 nM	–
1.19 nM	COC1=NO[C@@]2(CC[C@H](C)N3C[C@H]2n2cc(C(=O)NCc4ccc(F)cc4F)c(=O)c(OC(=O)OCCCCC(C)C)c2C3=O)C1 [Example 155, (3′S,5S,7′R)-10′-((2,4-difluorobenzyl)carbamoyl)-3-methoxy-3′-methyl-1′,11′-dioxo-1′,4′,5′,11′-tetrahydro-3′H,4H,7′H-spiro[isoxazole-5,6′-[2,7]methanopyrido[1,2-a][1,4]diazonin]-12′-yl (5-methylhexyl) carbonate]	17500 nM	–
2 nM	CC1=NO[C@@]2(CC[C@H](C)N3C[C@H]2n2cc(C(=O)NCc4ccc(F)cc4F)c(=O)c(OC(=O)OCCCCCC(C)C)c2C3=O)C1 [Example 156, (3′S,5S,7′R)-10′-((2,4-difluorobenzyl)carbamoyl)-3,3′-dimethyl-1′,11′-dioxo-1′,4′,5′,11′-tetrahydro-3′H,4H,7′H-spiro[isoxazole-5,6′-[2,7]methanopyrido[1,2-a][1,4]diazonin]-12′-yl (6-methylheptyl) carbonate]	14700 nM	–
2.33 nM	COC1=NO[C@@]2(CC[C@H](C)N3C[C@H]2n2cc(C(=O)NCc4ccc(F)cc4F)c(=O)c(OC(=O)OCCCCCC(C)C)c2C3=O)C1 [Example 157, (3′S,5S,7′R)-10′-((2,4-difluorobenzyl)carbamoyl)-3-methoxy-3′-methyl-1′,11′-dioxo-1′,4′,5′,11′-tetrahydro-3′H,4H,7′H-spiro[isoxazole-5,6′-[2,7]methanopyrido[1,2-a][1,4]diazonin]-12′-yl (6-methylheptyl) carbonate]	15400 nM	–
1.64 nM	CC1=NO[C@@]2(CC[C@H](C)N3C[C@H]2n2cc(C(=O)NCc4ccc(F)cc4F)c(=O)c(OC(=O)OCCCCCCCC(C)C)c2C3=O)C1 [Example 160, (3′S,5S,7′R)-10′-((2,4-difluorobenzyl)carbamoyl)-3,3′-dimethyl-1′,11′-dioxo-1′,4′,5′,11′-tetrahydro-3′H,4H,7′H-spiro[isoxazole-5,6′-[2,7]methanopyrido[1,2-a][1,4]diazonin]-12′-yl (8-methylnonyl) carbonate]	12600 nM	–
1.59 nM	COC1=NO[C@@]2(CC[C@H](C)N3C[C@H]2n2cc(C(=O)NCc4ccc(F)cc4F)c(=O)c(OC(=O)OCCCCCCCC(C)C)c2C3=O)C1 [Example 161, (3′S,5S,7′R)-10′-((2,4-difluorobenzyl)carbamoyl)-3-methoxy-3′-methyl-1′,11′-dioxo-1′,4′,5′,11′-tetrahydro-3′H,4H,7′H-spiro[isoxazole-5,6′-[2,7]methanopyrido[1,2-a][1,4]diazonin]-12′-yl (8-methylnonyl) carbonate]	40600 nM	–
2.42 nM	COCCOCCOCCOCCOCCOCCOCCOC(=O)Oc1c2n(cc(C(=O)NCc3ccc(F)cc3F)c1=O)[C@@H]1CN(C2=O)[C@@H](C)CC[C@]12CC(C)=NO2 [Example 162, (3′S,5S,7′R)-10′-((2,4-difluorobenzyl)carbamoyl)-3,3′-dimethyl-1′,11′-dioxo-1′,4′,5′,11′-tetrahydro-3′H,4H,7′H-spiro[isoxazole-5,6′-[2,7]methanopyrido[1,2-a][1,4]diazonin]-12′-yl (2,5,8,11,14,17,20-heptaoxadocosan-22-yl) carbonate]	27800 nM	–
2.08 nM	COCCOCCOCCOCCOCCOCCOCCOC(=O)Oc1c2n(cc(C(=O)NCc3ccc(F)cc3F)c1=O)[C@@H]1CN(C2=O)[C@@H](C)CC[C@]12CC(OC)=NO2 [Example 163, (3′S,5S,7′R)-10′-((2,4-difluorobenzyl)carbamoyl)-3-methoxy-3′-methyl-1′,11′-dioxo-1′,4′,5′,11′-tetrahydro-3′H,4H,7′H-spiro[isoxazole-5,6′-[2,7]methanopyrido[1,2-a][1,4]diazonin]-12′-yl (2,5,8,11,14,17,20-heptaoxadocosan-22-yl) carbonate]	37600 nM	–
4.75 nM	CCOC(=O)OCOc1c2n(cc(C(=O)NCc3ccc(F)cc3F)c1=O)[C@@H]1CN(C2=O)[C@@H](C)CC[C@]12CC(OC)=NO2 [Example 173, (((3′S,5S,7′R)-10′-((2,4-difluorobenzyl)carbamoyl)-3-methoxy-3′-methyl-1′,11′-dioxo-1′,4′,5′,11′-tetrahydro-3′H,4H,7′H-spiro[isoxazole-5,6′-[2,7]methanopyrido[1,2-a][1,4]diazonin]-12′-yl)oxy)methyl ethyl carbonate]	37900 nM	–
2.4 nM	CCCOC(=O)OCOc1c2n(cc(C(=O)NCc3ccc(F)cc3F)c1=O)[C@@H]1CN(C2=O)[C@@H](C)CC[C@]12CC(C)=NO2 [Example 174, (((3′S,5S,7′R)-10′-((2,4-difluorobenzyl)carbamoyl)-3,3′-dimethyl-1′,11′-dioxo-1′,4′,5′,11′-tetrahydro-3′H,4H,7′H-spiro[isoxazole-5,6′-[2,7]methanopyrido[1,2-a][1,4]diazonin]-12′-yl)oxy)methyl propyl carbonate]	18100 nM	–
2.06 nM	CCCOC(=O)OCOc1c2n(cc(C(=O)NCc3ccc(F)cc3F)c1=O)[C@@H]1CN(C2=O)[C@@H](C)CC[C@]12CC(OC)=NO2 [Example 175, (((3′S,5S,7′R)-10′-((2,4-difluorobenzyl)carbamoyl)-3-methoxy-3′-methyl-1′,11′-dioxo-1′,4′,5′,11′-tetrahydro-3′H,4H,7′H-spiro[isoxazole-5,6′-[2,7]methanopyrido[1,2-a][1,4]diazonin]-12′-yl)oxy)methyl propyl carbonate]	23300 nM	–
0.284 nM	CCCCOC(=O)OCOc1c2n(cc(C(=O)NCc3ccc(F)cc3F)c1=O)[C@@H]1CN(C2=O)[C@@H](C)CC[C@]12CC(C)=NO2 [Example 176, butyl ((((3′S,5S,7′R)-10′-((2,4-difluorobenzyl)carbamoyl)-3,3′-dimethyl-1′,11′-dioxo-1′,4′,5′,11′-tetrahydro-3′H,4H,7′H-spiro[isoxazole-5,6′-[2,7]methanopyrido[1,2-a][1,4]diazonin]-12′-yl)oxy)methyl) carbonate]	23000 nM	–
0.366 nM	CCCCOC(=O)OCOc1c2n(cc(C(=O)NCc3ccc(F)cc3F)c1=O)[C@@H]1CN(C2=O)[C@@H](C)CC[C@]12CC(OC)=NO2 [Example 177, butyl ((((3′S,5S,7′R)-10′-((2,4-difluorobenzyl)carbamoyl)-3-methoxy-3′-methyl-1′,11′-dioxo-1′,4′,5′,11′-tetrahydro-3′H,4H,7′H-spiro[isoxazole-5,6′-[2,7]methanopyrido[1,2-a][1,4]diazonin]-12′-yl)oxy)methyl) carbonate]	23900 nM	–
–	CCCCCCCCOC(=O)OCOc1c2n(cc(C(=O)NCc3ccc(F)cc3F)c1=O)[C@@H]1CN(C2=O)[C@@H](C)CC[C@]12CC(C)=NO2 [Example 178, (((3′S,5S,7′R)-10′-((2,4-difluorobenzyl)carbamoyl)-3,3′-dimethyl-1′,11′-dioxo-1′,4′,5′,11′-tetrahydro-3′H,4H,7′H-spiro[isoxazole-5,6′-[2,7]methanopyrido[1,2-a][1,4]diazonin]-12′-yl)oxy)methyl octyl carbonate]	15800 nM	2.64 nM
0.527 nM	CCCCCOC(=O)OCOc1c2n(cc(C(=O)NCc3ccc(F)cc3F)c1=O)[C@@H]1CN(C2=O)[C@@H](C)CC[C@]12CC(C)=NO2 [Example 179, (((3′S,5S,7′R)-10′-((2,4-difluorobenzyl)carbamoyl)-3,3′-dimethyl-1′,11′-dioxo-1′,4′,5′,11′-tetrahydro-3′H,4H,7′H-spiro[isoxazole-5,6′-[2,7]methanopyrido[1,2-a][1,4]diazonin]-12′-yl)oxy)methyl pentyl carbonate]	≥ 50000 nM	–
0.274 nM	CCCCCOC(=O)OCOc1c2n(cc(C(=O)NCc3ccc(F)cc3F)c1=O)[C@@H]1CN(C2=O)[C@@H](C)CC[C@]12CC(OC)=NO2 [Example 180, (((3′S,5S,7′R)-10′-((2,4-difluorobenzyl)carbamoyl)-3-methoxy-3′-methyl-1′,11′-dioxo-1′,4′,5′,11′-tetrahydro-3′H,4H,7′H-spiro[isoxazole-5,6′-[2,7]methanopyrido[1,2-a][1,4]diazonin]-12′-yl)oxy)methyl pentyl carbonate]	≥ 50000 nM	–
0.262 nM	CCCCCCOC(=O)OCOc1c2n(cc(C(=O)NCc3ccc(F)cc3F)c1=O)[C@@H]1CN(C2=O)[C@@H](C)CC[C@]12CC(C)=NO2 [Example 181, (((3′S,5S,7′R)-10′-((2,4-difluorobenzyl)carbamoyl)-3,3′-dimethyl-1′,11′-dioxo-1′,4′,5′,11′-tetrahydro-3′H,4H,7′H-spiro[isoxazole-5,6′-[2,7]methanopyrido[1,2-a][1,4]diazonin]-12′-yl)oxy)methyl hexyl carbonate]	14700 nM	–
